We go through 5 compounds from patent publication US5547975A, “Benzopyranopyrazolyl derivatives for the treatment of inflammation” (priority 1994, dated 1996).

One test addresses T1, Human COX II (Homo sapiens, UniProt P35354).
T1 construct: made in house; host or cells: SF9 insect cells, recombinant baculovirus (transfer vector pVL1393)
T1 sequence (P35354 18-604): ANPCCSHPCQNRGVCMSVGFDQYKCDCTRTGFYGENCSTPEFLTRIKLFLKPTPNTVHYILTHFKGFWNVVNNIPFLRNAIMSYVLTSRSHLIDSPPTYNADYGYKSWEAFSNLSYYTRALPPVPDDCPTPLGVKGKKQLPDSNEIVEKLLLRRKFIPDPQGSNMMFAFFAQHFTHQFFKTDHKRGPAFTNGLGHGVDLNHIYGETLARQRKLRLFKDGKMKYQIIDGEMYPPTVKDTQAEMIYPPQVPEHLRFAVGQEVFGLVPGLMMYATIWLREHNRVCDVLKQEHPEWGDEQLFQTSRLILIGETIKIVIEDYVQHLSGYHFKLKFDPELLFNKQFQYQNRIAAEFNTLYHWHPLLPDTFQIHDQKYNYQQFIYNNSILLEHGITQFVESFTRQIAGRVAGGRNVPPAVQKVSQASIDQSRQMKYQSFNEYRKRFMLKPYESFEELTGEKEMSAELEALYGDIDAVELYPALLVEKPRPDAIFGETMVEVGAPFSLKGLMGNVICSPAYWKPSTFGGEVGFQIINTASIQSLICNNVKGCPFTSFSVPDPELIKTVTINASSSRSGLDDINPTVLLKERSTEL
Briefly: Evaluation of COX II activity in vitro (recombinant enzyme, PGE2 ELISA). In kind it is biochemical. Conditions: 10 μM arachidonic acid, pre-incubation 10-20 minutes, pH 8.0; read-out: Human COX II ID50. The procedure:
(§1) Evaluation of COX I and COX II activity in vitro
The COX II inhibition activity of the compounds of this invention illustrated in the Examples was determined by the following methods.
(§2) a. Preparation of recombinant COX baculoviruses
(§3) A 2.0 kb fragment containing the coding region of either human or murine COX-I or human or murine COX-II was cloned into a BamH1 site of the baculovirus transfer vector pVL1393 (Invitrogen) to generate the baculovirus transfer vectors for COX-I and COX-II in a manner similar to the method of D. R. O'Reilly et al (Baculovirus Expression Vectors: A Laboratory Manual (1992)). Recombinant baculoviruses were isolated by transfecting 4 μg of baculovirus transfer vector DNA into SF9 insect cells ([…]) along with 200 ng of linearized baculovirus plasmid DNA by the calcium phosphate method. See M. D. Summers and G. E. Smith, A Manual of Methods for Baculovirus Vectors and Insect Cell Culture Procedures, Texas Agric. Exp. Station Bull. 1555 (1987). Recombinant viruses were purified by three rounds of plaque purification and high titer (10E7-10E8 pfu/ml) stocks of virus were prepared. For large scale production, SF9 insect cells were infected in 10 liter fermentors (0.5×10^6 /ml) with the recombinant baculovirus stock such that the multiplicity of infection was 0.1. After 72 hours the cells were centrifuged and the cell pellet homogenized in Tris/Sucrose (50 mM: 25%, pH 8.0) containing 1% 3-[(3-cholamidopropyl)dimethylammonio]-1-propanesulfonate (CHAPS). The homogenate was centrifuged at 10,000'G for 30 minutes, and the resultant supernatant was stored at -80° C. before being assayed for COX activity.
(§4) b. Assay for COX I and COX II activity:
(§5) COX activity was assayed as PGE2 formed/μg protein/time using an ELISA to detect the prostaglandin released. CHAPS-solubilized insect cell membranes containing the appropriate COX enzyme were incubated in a potassium phosphate buffer (50 mM, pH 8.0) containing epinephrine, phenol, and heme with the addition of arachidonic acid (10 μM). Compounds were pre-incubated with the enzyme for 10-20 minutes prior to the addition of arachidonic acid. Any reaction between the arachidonic acid and the enzyme was stopped after ten minutes at 37° C./room temperature by transferring 40 μl of reaction mix into 160 μl ELISA buffer and 25 μM indomethacin. The PGE2 formed was measured by standard ELISA technology (Cayman Chemical).
For orientation: In an ELISA, binding on a coated surface is turned into a signal by an enzyme label.

Test [1] deals with carrageenan-induced hyperalgesic foot withdrawal. Briefly: Rat Carrageenan-induced Analgesia Test. Conditions: oral, @ 30 mg/ka body weight, 3 hours after carrageenan injection. In kind it is in vivo, rat (male Sprague-Dawley). Here is the method: Rat Carrageenan-induced Analgesia Test
The analgesia test using rat carrageenan was performed with materials, reagents and procedures essentially as described by Hargreaves, et al., (Pain, 32, 77 (1988)). Male Sprague-Dawley rats were treated as previously described for the Carrageenan Foot Pad Edema test. Three hours after the injection of the carrageenan, the rats were placed in a special plexiglass container with a transparent floor having a high intensity lamp as a radiant heat source, positionable under the floor. After an initial twenty minute period, thermal stimulation was begun on either the injected foot or on the contralateral uninjected foot. A photoelectric cell turned off the lamp and timer when light was interrupted by paw withdrawal. The time until the rat withdraws its foot was then measured. The withdrawal latency in seconds was determined for the control and drug-treated groups, and percent inhibition of the hyperalgesic foot withdrawal determined.

The next test deals with T2, Human COX I (Homo sapiens, UniProt P23219).
T2 construct: made in house; host or cells: SF9 insect cells, recombinant baculovirus (transfer vector pVL1393)
Briefly: Evaluation of COX I activity in vitro (recombinant enzyme, PGE2 ELISA). In kind it is biochemical. As to conditions: 10 μM arachidonic acid, pre-incubation 10-20 minutes, pH 8.0; read-out: Human COX I ID50.
Source text: as §1, §2, §3, §4, §5

Test [2] deals with carrageenan foot pad edema (rat paw edema). Briefly: Rat Carrageenan Foot Pad Edema Test. In kind it is in vivo, rat (male Sprague-Dawley). As to conditions: oral, @ 30 mg/ka body weight, 3 hours after carrageenan injection. Here is the method:
Rat Carrageenan Foot Pad Edema Test
Male Sprague-Dawley rats were selected in each group so that the average body weight was as close as possible. Rats were fasted with free access to water for over sixteen hours prior to the test. […] One hour later a subplantar injection of 0.1 mL of 1% solution of carrageenan/sterile 0.9% saline was administered and the volume of the injected foot was measured with a displacement plethysmometer connected to a pressure transducer with a digital indicator. Three hours after the injection of the carrageenan, the volume of the foot was again measured.
(In general: Carrageenan injected into the paw causes an acute inflammation.)

T2 sequence (P23219 24-599): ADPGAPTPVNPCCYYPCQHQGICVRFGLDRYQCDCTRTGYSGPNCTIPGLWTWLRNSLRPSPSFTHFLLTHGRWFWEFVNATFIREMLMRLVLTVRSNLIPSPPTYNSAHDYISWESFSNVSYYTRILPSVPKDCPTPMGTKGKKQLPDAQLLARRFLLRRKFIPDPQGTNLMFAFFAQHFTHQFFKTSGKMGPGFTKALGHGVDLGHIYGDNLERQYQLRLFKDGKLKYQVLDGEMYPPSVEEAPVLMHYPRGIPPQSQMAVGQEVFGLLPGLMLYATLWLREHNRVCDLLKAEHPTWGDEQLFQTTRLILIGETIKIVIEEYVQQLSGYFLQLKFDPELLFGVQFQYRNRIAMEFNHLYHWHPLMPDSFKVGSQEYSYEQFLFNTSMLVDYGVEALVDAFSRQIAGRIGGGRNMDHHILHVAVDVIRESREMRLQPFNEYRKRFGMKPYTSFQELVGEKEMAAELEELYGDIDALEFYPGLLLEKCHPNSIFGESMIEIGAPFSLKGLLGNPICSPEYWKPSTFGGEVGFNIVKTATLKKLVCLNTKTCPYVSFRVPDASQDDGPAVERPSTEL

Regarding `COc1ccc2c(c1F)CSc1c(C(F)(F)F)nn(-c3ccc(S(C)(=O)=O)cc3)c1-2` [Example 2, 1,5-Dihydro-6-fluoro-7-methoxy-1-[(4-methylsulfonyl)phenyl]-3-(trifluoromethyl)-[2]benzothiopyrano[4,3-c]pyrazole], the figures for the IC50 at Human COX II and on Human COX I were below 100 nM and above 100 µM, respectively. Moreover, the “ANALGESIA % Inhibition” value in test [1] is listed as 29%.

Regarding `NS(=O)(=O)c1ccc(-n2nc(C(F)(F)F)c3c2-c2cc(Cl)sc2CS3)cc1` [Example 21, 4-[7-Chloro-1,5-dihydro-3-trifluoromethyl-thieno[3',2':4,5]thiopyrano[3,2-c]pyrazol-1-yl]benzenesulfonamide], in test [2], the “RAT PAW EDEMA % Inhibition” value was found to be 26%. In addition, the results for the IC50 at Human COX II and on Human COX I were below 100 nM and 8.7 µM, respectively.

Regarding `COc1ccc2c(c1F)C[S+]([O-])c1c(C(F)(F)F)nn(-c3ccc(S(N)(=O)=O)cc3)c1-2` (stereo not drawn) [Example 28, 4-[1,5-dihydro-6-fluoro-7-methoxy-3-(trifluoromethyl)-[2]benzothiopyrano-S-oxide[4,3-c]pyrazol-1-yl]benzenesulfonamide], the IC50 on Human COX II was 1200 nM; at Human COX I, above 100 µM.

With `COC(=O)c1nn(-c2ccc(S(N)(=O)=O)cc2)c2c1SCc1cc(F)ccc1-2` [Example 29, methyl[1-(4-aminosulfonylphenyl)-1,5-dihydro-7-fluoro-[2]benzothiopyrano[4,3-c]pyrazol-3-yl]carboxylate], the figures for the IC50 at Human COX II and at Human COX I were 800 nM and 13.2 µM, respectively.

On to `COc1ccc2c(c1F)CSCc1c(C(F)(F)F)nn(-c3ccc(S(N)(=O)=O)cc3)c1-2` [Example 30, 4-[4,6-dihydro-7-fluoro-8-methoxy-3-(trifluoromethyl)-[2]benzothiepino[5,4-c]pyrazol-1-yl]benzenesulfonamide], for which the IC50 at Human COX II was determined as 2200 nM; at Human COX I, 73.4 µM.
